Source: PMC9112332, “Structure-Based Design of α-Substituted Mercaptoacetamides as Inhibitors of the Virulence Factor LasB from Pseudomonas aeruginosa” (ACS Infectious Diseases, 2022)
Read-outs that look alike come from different tables or passages of the source.

Tests used:
MMP-7 = target: T1, MMP-7 (Homo sapiens, UniProt P09237); assay: Human off-target inhibition assay, MMP-7; format: biochemical
T1 sequence (P09237 95-267): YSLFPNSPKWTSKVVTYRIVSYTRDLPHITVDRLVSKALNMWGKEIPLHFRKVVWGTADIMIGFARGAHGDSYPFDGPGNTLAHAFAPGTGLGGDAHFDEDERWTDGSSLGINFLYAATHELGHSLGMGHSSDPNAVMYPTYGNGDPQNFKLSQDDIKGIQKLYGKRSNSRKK

HDAC-3 = HDAC-3 (Homo sapiens, UniProt O15379); assay: Human off-target inhibition assay, HDAC-3; format: biochemical
Protocol: (§1) Table 3 Activities of Four LasB Inhibitors against the Selected MMPs (% of inhibition at 100 μM) and Further Human Off-Targets ^a | column: 3; 12; 13; 23

MMP-3 = MMP-3 (Homo sapiens, UniProt P08254); assay: Human off-target inhibition assay, MMP-3; format: biochemical
HDAC-8 = target: T2, HDAC-8 (Homo sapiens, UniProt Q9BY41); assay: Human off-target inhibition assay, HDAC-8; format: biochemical
T2 sequence (Q9BY41 1-377): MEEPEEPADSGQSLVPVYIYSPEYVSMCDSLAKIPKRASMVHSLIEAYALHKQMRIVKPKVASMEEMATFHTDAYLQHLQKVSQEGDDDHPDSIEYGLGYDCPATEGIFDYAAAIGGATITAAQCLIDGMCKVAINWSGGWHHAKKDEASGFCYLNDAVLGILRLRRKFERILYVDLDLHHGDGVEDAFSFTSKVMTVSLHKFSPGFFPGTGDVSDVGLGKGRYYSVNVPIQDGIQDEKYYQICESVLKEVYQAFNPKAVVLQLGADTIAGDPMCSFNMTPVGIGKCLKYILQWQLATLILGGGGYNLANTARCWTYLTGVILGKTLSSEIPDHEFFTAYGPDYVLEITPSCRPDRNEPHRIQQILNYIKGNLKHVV
Protocol: as §1

ColH-PD = ColH-PD (Hathewaya histolytica, UniProt Q46085); assay: biochemical; set-up: species or system C. histolyticum; settings: for inhibition at 1 µM: read-out: % inh. of ColH-PD @1µM
MMP-1 = target: T3, MMP-1 (Homo sapiens, UniProt P03956); assay: Human off-target inhibition assay, MMP-1; format: biochemical
T3 sequence (P03956 100-469): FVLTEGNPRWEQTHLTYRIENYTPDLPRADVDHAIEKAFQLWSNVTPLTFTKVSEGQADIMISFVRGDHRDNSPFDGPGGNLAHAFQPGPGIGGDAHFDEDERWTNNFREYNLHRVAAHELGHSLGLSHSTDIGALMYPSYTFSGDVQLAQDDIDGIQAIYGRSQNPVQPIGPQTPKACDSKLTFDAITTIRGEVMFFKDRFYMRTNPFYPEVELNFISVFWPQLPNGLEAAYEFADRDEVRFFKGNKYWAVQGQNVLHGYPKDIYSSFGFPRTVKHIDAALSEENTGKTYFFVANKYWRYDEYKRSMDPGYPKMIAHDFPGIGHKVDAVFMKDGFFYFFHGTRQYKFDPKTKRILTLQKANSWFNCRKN

MMP-2 = target: T4, MMP-2 (Homo sapiens, UniProt P08253); assay: Human off-target inhibition assay, MMP-2; format: biochemical
T4 sequence (P08253 110-660): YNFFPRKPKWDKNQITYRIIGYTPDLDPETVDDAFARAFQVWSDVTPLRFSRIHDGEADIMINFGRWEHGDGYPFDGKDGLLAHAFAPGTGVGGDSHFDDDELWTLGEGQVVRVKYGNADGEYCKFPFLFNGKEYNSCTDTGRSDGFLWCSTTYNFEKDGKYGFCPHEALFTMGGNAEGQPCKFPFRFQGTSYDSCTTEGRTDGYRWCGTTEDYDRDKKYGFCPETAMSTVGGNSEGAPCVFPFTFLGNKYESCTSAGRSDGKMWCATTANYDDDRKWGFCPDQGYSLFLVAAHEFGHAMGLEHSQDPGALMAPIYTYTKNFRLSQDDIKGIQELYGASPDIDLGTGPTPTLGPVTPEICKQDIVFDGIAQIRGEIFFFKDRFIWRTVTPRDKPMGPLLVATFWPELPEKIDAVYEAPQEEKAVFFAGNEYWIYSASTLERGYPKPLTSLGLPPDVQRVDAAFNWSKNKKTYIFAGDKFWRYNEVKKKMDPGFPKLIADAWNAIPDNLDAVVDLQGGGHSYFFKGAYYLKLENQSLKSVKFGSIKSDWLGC

MMP-8 = MMP-8 (Homo sapiens, UniProt P22894); assay: Human off-target inhibition assay, MMP-8; format: biochemical
LasB = LasB (Pseudomonas aeruginosa, UniProt Q02RJ6); assay: LasB inhibition assay (FRET-based, in vitro)
Protocol: LasB Inhibition Assay. The purification of LasB from P. aeruginosa P14 supernatant as well
as the subsequent performance of the FRET-based in vitro inhibition assay was performed as
described previously.1 All samples were run in duplicate for each condition, and experiments
were performed independently at least twice.

MMP-14 = MMP-14 (Homo sapiens, UniProt P50281); assay: Human off-target inhibition assay, MMP-14; format: biochemical
zebrafish embryos = assay: Zebrafish embryo toxicity (maximum tolerated concentration) assay; format: in vivo; settings: for toxicity (larvae with toxicity signs): Table S2
ADAM17 = ADAM17 (Homo sapiens, UniProt P78536); assay: Human off-target inhibition assay, ADAM17 (TACE); format: biochemical
[1] = tested on: NHDF cells treated with wt PA14 supernatant; format: cell-based, human; settings: 15% (v/v) wt PA14 supernatant; for effect on viability of NHDF cells treated with wt PA14 supernatant (in words): MTT
[2] = tested on: A549 cells treated with wt PA14 supernatant; settings: 15% (v/v) wt PA14 supernatant; for effect on viability of A549 cells treated with wt PA14 supernatant (in words): MTT
G. mellonella larvae = assay: In vivo Galleria mellonella virulence assay; settings: compound with wt PA14 supernatant, after 6 days
[3] = tested on: A549 cells treated with ΔlasB PA14 supernatant; format: cell-based, human; settings: 15% (v/v) ΔlasB PA14 supernatant, MTT
[4] = Cytotoxicity assay, HepG2; format: cell-based; settings: HepG2 cells; human hepatoma cell line
Cytotoxicity assay, A549 = format: cell-based; settings: A549 cells; adenocarcinomic human alveolar basal epithelial cells
[5] = Cytotoxicity assay, HEK293; format: cell-based; settings: HEK293 cells; human embryonic kidney cells
P. aeruginosa PA14 = assay: Antibacterial activity (MIC) assay; format: cell-based, Pseudomonas aeruginosa
[6] = tested on: A549 cells treated with wt PA14 supernatant; assay: cells; settings: Homo sapiens, A549, 24 h, read-out: increase in viability of A549 cells

Chain of HDAC-3 (O15379 whole entry): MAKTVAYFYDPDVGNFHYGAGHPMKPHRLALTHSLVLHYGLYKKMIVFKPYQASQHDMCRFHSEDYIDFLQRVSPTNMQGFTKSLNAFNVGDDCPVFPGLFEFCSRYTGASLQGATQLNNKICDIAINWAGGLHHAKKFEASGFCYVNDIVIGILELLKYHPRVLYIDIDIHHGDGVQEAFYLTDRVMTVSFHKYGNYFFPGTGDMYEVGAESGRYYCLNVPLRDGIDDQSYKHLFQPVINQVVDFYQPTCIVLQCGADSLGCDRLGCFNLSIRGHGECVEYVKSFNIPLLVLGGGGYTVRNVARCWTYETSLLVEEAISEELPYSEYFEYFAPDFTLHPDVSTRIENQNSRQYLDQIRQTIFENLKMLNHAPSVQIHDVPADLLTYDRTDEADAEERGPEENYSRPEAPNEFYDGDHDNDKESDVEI
Chain of HDAC-3 (Q9Y618 395-489 partner limits assumed): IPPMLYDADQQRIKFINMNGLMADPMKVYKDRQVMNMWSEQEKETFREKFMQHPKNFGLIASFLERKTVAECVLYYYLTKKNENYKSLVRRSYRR
Chain of MMP-8 (P22894 101-467): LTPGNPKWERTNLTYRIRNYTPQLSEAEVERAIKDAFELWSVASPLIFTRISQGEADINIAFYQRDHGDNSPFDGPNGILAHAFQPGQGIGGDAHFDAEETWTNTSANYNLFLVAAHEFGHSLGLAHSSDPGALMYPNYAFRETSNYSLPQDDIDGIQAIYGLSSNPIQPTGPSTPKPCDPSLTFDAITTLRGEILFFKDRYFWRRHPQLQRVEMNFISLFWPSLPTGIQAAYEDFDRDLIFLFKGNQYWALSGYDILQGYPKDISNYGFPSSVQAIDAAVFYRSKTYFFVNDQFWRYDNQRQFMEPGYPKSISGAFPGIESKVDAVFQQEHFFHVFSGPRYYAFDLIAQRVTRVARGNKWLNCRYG
Chain of ColH-PD (Q46085 331-721 limits assumed): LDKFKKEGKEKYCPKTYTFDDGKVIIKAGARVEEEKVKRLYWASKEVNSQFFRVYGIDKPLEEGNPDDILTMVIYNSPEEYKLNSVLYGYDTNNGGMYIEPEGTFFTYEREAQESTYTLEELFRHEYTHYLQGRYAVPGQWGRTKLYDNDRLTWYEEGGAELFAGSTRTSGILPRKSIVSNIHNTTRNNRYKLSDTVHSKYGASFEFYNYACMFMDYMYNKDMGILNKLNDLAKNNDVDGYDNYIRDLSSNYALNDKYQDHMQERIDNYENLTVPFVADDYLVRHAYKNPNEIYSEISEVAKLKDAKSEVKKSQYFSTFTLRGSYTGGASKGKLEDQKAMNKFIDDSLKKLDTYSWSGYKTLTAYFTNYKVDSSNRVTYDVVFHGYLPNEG
Chain of MMP-3 (P08254 100-477): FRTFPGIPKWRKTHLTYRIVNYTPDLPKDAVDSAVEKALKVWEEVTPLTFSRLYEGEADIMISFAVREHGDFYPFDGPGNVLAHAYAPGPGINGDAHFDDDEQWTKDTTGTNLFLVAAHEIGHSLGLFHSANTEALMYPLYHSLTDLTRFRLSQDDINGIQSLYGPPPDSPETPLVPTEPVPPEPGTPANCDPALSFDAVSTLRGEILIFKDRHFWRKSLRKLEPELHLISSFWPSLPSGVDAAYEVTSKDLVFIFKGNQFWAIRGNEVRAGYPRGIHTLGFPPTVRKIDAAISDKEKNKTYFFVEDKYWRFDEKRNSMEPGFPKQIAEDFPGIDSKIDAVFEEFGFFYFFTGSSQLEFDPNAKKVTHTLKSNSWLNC
Chain of LasB (Q02RJ6 198-498): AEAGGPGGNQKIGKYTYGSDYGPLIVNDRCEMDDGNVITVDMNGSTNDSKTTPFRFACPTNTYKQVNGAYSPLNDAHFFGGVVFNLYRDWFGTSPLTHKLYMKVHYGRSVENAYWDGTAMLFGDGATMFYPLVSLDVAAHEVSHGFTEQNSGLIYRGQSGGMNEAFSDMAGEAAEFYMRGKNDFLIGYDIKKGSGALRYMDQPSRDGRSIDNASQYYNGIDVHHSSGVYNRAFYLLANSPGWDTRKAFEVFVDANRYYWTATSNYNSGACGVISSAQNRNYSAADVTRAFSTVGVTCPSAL
Chain of ADAM17 (P78536 215-824): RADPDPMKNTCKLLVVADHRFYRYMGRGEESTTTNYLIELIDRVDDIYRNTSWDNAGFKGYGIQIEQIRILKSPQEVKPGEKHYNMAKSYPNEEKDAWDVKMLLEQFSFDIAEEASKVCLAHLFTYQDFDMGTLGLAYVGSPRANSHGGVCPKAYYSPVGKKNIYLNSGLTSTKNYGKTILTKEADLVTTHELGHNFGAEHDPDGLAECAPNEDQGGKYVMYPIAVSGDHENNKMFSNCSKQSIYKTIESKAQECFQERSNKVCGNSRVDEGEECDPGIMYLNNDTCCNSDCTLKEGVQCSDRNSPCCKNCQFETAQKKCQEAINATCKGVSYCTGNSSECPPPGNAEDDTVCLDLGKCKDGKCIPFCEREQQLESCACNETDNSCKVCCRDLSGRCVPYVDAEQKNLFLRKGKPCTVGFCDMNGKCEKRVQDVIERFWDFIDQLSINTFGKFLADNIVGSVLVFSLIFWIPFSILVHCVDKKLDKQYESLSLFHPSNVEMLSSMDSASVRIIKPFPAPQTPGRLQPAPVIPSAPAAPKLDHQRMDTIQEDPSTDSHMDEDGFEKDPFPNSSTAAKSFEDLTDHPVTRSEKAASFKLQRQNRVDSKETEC

Cc1ccc(NC(=O)C(S)Cc2ccccc2)cc1 (centres unmarked) [Compound 3]
inhibition at 100 µM (MMP-7): < 10%
IC50 (HDAC-3): > 100 µM
inhibition at 100 µM (MMP-3): < 10%
IC50 (HDAC-8): > 100 µM
Ki (ColH-PD): 0.05 ± 0.01 µM
inhibition at 100 µM (MMP-1): < 10%
inhibition at 100 µM (MMP-2): < 10%
inhibition at 100 µM (MMP-8): < 10%
boost in potency compared to compound 4 (LasB; LasB IC50 ratio vs compound 4): 12 fold
ligand efficiency (LE) (LasB; calculated from LasB activity): 0.43
lipophilic ligand efficiency (LLE) (LasB; calculated from LasB activity): 2.37
inhibition at 100 µM (MMP-14): < 10%

O=C(Nc1ccccc1)C(S)Cc1ccccc1 (centres unmarked) [Compound 5]
Ki (ColH-PD): 0.4 ± 0.04 µM
IC50 (LasB; read-out: IC50 against LasB, mean and SD of at least two independent experiments): 1.2 ± 0.1 µM

O=C(Nc1ccc([N+](=O)[O-])cc1)C(S)Cc1ccccc1 (centres unmarked) [Compound 11]
inhibition at 1 µM (ColH-PD): 88 ± 2%
IC50 (LasB): 1 ± 0.1 µM

COc1ccc(NC(=O)C(S)Cc2ccccc2)cc1 (centres unmarked) [Compound 12, 2-Mercapto-N-(4-methoxyphenyl)-3-phenylpropanamide]
inhibition at 100 µM (MMP-7): < 10%
Survival rate % (zebrafish embryos; 2 µM): 100%
toxicity (larvae with toxicity signs) (zebrafish embryos; 2 µM): No toxicity signs were observed
Survival rate % (zebrafish embryos; 30 µM): 0%
embryo observation (zebrafish embryos; 30 µM, 2 dpf): imp. dev.
embryo observation (zebrafish embryos; 30 µM, 3 dpf): all dead
toxicity (larvae with toxicity signs) (zebrafish embryos; 30 µM): 100%
Survival rate % (zebrafish embryos; 50 µM): 0%
embryo observation (zebrafish embryos; 50 µM, 3 dpf): all dead
toxicity (larvae with toxicity signs) (zebrafish embryos; 50 µM): 100%
Survival rate % (zebrafish embryos; 100 µM): 0%
embryo observation (zebrafish embryos; 100 µM, 2 dpf): all dead
toxicity (larvae with toxicity signs) (zebrafish embryos; 100 µM): 100%
maximum tolerated concentration (MTC) (zebrafish embryos; zebrafish embryos, until 120 hpf): ≤ 2 µM
IC50 (ADAM17): 4.1 ± 0.1 µM
IC50 (HDAC-3): > 100 µM
inhibition at 100 µM (MMP-3): < 10%
IC50 (HDAC-8): > 100 µM
effect on viability of NHDF cells treated with wt PA14 supernatant (in words) [1]: Concentrations-dependent effects
Ki (ColH-PD): 0.04 ± 0.01 µM
effect on viability of A549 cells treated with wt PA14 supernatant (in words) [2]: Dose-dependent effect
survival of larvae (G. mellonella larvae): 70 ± 5%
inhibition at 100 µM (MMP-1): < 10%
effect on A549 cells treated with ΔlasB PA14 supernatant (in words) [3]: no effect
inhibition at 100 µM (MMP-2): < 10%
inhibition at 100 µM (MMP-8): 12 ± 2%
IC50 (LasB): 0.7 ± 0.03 µM
inhibition at 100 µM (MMP-14): < 10%

O=C(Nc1ccc(O)cc1)C(S)Cc1ccccc1 (centres unmarked) [Compound 13]
IC50 [4]: > 100 µM
inhibition at 100 µM (MMP-7): < 10%
IC50 (ADAM17): 2.3 ± 1.4 µM
IC50 (HDAC-3): > 250 µM
inhibition at 100 µM (MMP-3): < 10%
IC50 (HDAC-8): > 250 µM
IC50 (Cytotoxicity assay, A549): > 100 µM
effect on viability of NHDF cells treated with wt PA14 supernatant (in words) [1]: Concentrations-dependent effects
Ki (ColH-PD): 0.1 ± 0.02 µM
effect on viability of A549 cells treated with wt PA14 supernatant (in words) [2]: Dose-dependent effect
IC50 [5]: > 100 µM
MIC (P. aeruginosa PA14; Pseudomonas aeruginosa, P. aeruginosa PA14): > 100 µM
reduction of bacterial growth (P. aeruginosa PA14; at 100 μM): less than 10%
inhibition at 100 µM (MMP-1): < 10%
effect on A549 cells treated with ΔlasB PA14 supernatant (in words) [3]: no effect
inhibition at 100 µM (MMP-2): < 10%
inhibition at 100 µM (MMP-8): 19 ± 4%
IC50 (LasB): 0.6 ± 0.04 µM
inhibition at 100 µM (MMP-14): < 10%

Cc1ccc(CC(S)C(=O)Nc2ccccc2)cc1 (centres unmarked) [Compound 14]
inhibition at 1 µM (ColH-PD): 69 ± 3%
IC50 (LasB): 2.8 ± 0.3 µM

O=C(Nc1ccccc1)C(S)Cc1ccc(O)cc1 (centres unmarked) [Compound 15]
inhibition at 1 µM (ColH-PD): 63 ± 2%
IC50 (LasB): 7.4 ± 0.6 µM
decrease in activity compared to compound 3 (LasB; LasB IC50 ratio vs compound 3): 15 fold

O=C(Nc1ccccc1)C(S)Cc1ccc(O)c([N+](=O)[O-])c1 (centres unmarked) [Compound 16]
inhibition at 1 µM (ColH-PD): 74 ± 5%
IC50 (LasB): 2.5 ± 0.2 µM

O=C(Nc1ccccc1)C(S)Cc1ccc(Cl)cc1 (centres unmarked) [Compound 17]
IC50 (LasB): 1.1 ± 0.1 µM

O=C(Nc1nccs1)C(S)Cc1ccccc1 (centres unmarked) [Compound 18]
inhibition at 1 µM (ColH-PD): 34 ± 3%
IC50 (LasB): 1.6 ± 0.1 µM

COC(=O)c1ccsc1NC(=O)C(S)Cc1ccccc1 (centres unmarked) [Compound 19]
IC50 (LasB): 8 ± 1.1 µM

O=C(Nc1cccnc1)C(S)Cc1ccccc1 (centres unmarked) [Compound 20]
IC50 (LasB): 1.2 ± 0.04 µM

O=C(Nc1ccccn1)C(S)Cc1ccccc1 (centres unmarked) [Compound 21]
IC50 (LasB): 3.1 ± 0.2 µM

O=C(Nc1ccncc1)C(S)Cc1ccccc1 (centres unmarked) [Compound 22]
IC50 (LasB): 4.9 ± 0.5 µM

COc1ccc2nc(NC(=O)C(S)Cc3ccccc3)sc2c1 (centres unmarked) [Compound 24]
viability at 50 µM [6]: 80 ± 15%
Ki (ColH-PD): 28 ± 1 µM
effect on viability of A549 cells treated with wt PA14 supernatant (in words) [2]: Dose-dependent effect
effect on A549 cells treated with ΔlasB PA14 supernatant (in words) [3]: no effect
IC50 (LasB): 1 ± 0.1 µM

O=C(Nc1nc2ccc(Cl)cc2s1)C(S)Cc1ccccc1 (centres unmarked) [Compound 25]
IC50 (LasB): 2.4 ± 0.2 µM

O=C(Nc1nc2ccccc2[nH]1)C(S)Cc1ccccc1 (centres unmarked) [Compound 26]
inhibitory activity against LasB (in words) (LasB; compared to compound 23): dramatic decrease in the inhibitory activity

CC(C)C[C@H](NP(=O)(O)O[C@@H]1O[C@@H](C)[C@H](O)[C@@H](O)[C@H]1O)C(=O)N[C@@H](Cc1c[nH]c2ccccc12)C(=O)O [Pam, phosphoramidon, reference compound]
cell integrity and morphology of NHDF cells (bright-field imaging) [1]: cell integrity and morphology were maintained
cell integrity and morphology of A549 cells (bright-field imaging) [2]: cell integrity and morphology were maintained
